Assay results published in patent publication US20230087118A1, “IMIDAZO[1,2-a][sequence] DERIVATIVES AND THEIR USE IN THE TREATMENT OF DISEASE” (priority 2019, published 2023).
pIC50: −log10 of the molar value.

Molecular target: T1, IRAK4 (Homo sapiens, UniProt Q9NWZ3)
T1 sequence (Q9NWZ3 1-460): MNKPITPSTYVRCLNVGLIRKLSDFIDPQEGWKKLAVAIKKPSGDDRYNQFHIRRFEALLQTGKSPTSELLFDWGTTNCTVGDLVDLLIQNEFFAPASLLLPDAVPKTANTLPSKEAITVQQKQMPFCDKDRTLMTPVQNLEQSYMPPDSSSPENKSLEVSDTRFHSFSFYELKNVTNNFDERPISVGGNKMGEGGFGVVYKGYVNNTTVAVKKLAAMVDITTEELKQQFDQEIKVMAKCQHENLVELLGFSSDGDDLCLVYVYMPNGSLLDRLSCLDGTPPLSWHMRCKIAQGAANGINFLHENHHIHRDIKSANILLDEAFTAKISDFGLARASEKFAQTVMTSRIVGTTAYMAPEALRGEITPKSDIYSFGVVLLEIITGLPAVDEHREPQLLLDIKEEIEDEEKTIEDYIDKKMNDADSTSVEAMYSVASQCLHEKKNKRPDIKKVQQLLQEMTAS
Assay: biochemical

SMILES	pIC50
CCOc1cc(C(=O)Nc2cccc(C(F)F)n2)cn2cc([C@@H]3CCCOC3)nc12 (single isomer, unassigned) [Example 54]	8.19
CCOc1cc(C(=O)Nc2cccc(C(F)F)n2)cn2cc([C@H]3CCCOC3)nc12 (single isomer, unassigned) [Example 55]	7.87
CCOc1cc2nc([C@H]3C[C@@H]3F)cn2cc1C(=O)Nc1cccc(OC)n1 (single isomer, unassigned) [Example 66]	7.60
CCOc1cc2nc([C@@H]3C[C@H]3F)cn2cc1C(=O)Nc1cccc(OC)n1 (single isomer, unassigned) [Example 67]	7.40
CCOc1cc2nc([C@@H]3CC3(F)F)cn2cc1C(=O)Nc1cccc(OC)n1 (single isomer, unassigned) [Example 69]	7.35
COc1nc(C(=O)Nc2cccc(C(F)(F)F)n2)cn2cc(C[C@@H]3CCOC3)nc12 (single isomer, unassigned) [Example 70]	7.77
COc1nc(C(=O)Nc2cccc(C(F)(F)F)n2)cn2cc(C[C@H]3CCOC3)nc12 (single isomer, unassigned) [Example 71]	7.51
CC(C)Oc1nc2nc([C@@]34CC[C@@](C)(C3)OC4)cn2cc1C(=O)Nc1cccc(C(F)F)n1 (single isomer, unassigned) [Example 576]	9.70
CC(C)Oc1nc2nc([C@]34CC[C@](C)(C3)OC4)cn2cc1C(=O)Nc1cccc(C(F)F)n1 (single isomer, unassigned) [Example 577]	9.70
C[C@@]12CC[C@@](c3cn4cc(C(=O)Nc5cccc(C(F)F)n5)cc(OC(F)F)c4n3)(CO1)C2 (single isomer, unassigned) [Example 584]	7.81
C[C@]12CC[C@](c3cn4cc(C(=O)Nc5cccc(C(F)F)n5)cc(OC(F)F)c4n3)(CO1)C2 (single isomer, unassigned) [Example 585]	7.94
COc1ncccc1NC(=O)c1cn2cc([C@]34CC[C@](C)(C3)OC4)nc2c(OC)n1 (single isomer, unassigned) [Example 586]	8.70
COc1ncccc1NC(=O)c1cn2cc([C@@]34CC[C@@](C)(C3)OC4)nc2c(OC)n1 (single isomer, unassigned) [Example 587]	8.49
CC(C)Oc1nc(C(=O)Nc2cccc(C(F)F)n2)cn2cc([C@@]34CC[C@@](C)(C3)OC4)nc12 (single isomer, unassigned) [Example 588]	8.82
CC(C)Oc1nc(C(=O)Nc2cccc(C(F)F)n2)cn2cc([C@]34CC[C@](C)(C3)OC4)nc12 (single isomer, unassigned) [Example 589]	8.62
CC(C)Oc1nc(C(=O)Nc2ccn(C)n2)cn2cc([C@@]34CC[C@@](C)(C3)OC4)nc12 (single isomer, unassigned) [Example 592]	8.47
CC(C)Oc1nc(C(=O)Nc2ccn(C)n2)cn2cc([C@]34CC[C@](C)(C3)OC4)nc12 (single isomer, unassigned) [Example 593]	8.19
CCOc1nc(C(=O)Nc2cc(F)cnc2OC)cn2cc([C@@H]3CCCOC3)nc12 (single isomer, unassigned) [Example 594]	8.25
CCOc1nc(C(=O)Nc2cc(F)cnc2OC)cn2cc([C@H]3CCCOC3)nc12 (single isomer, unassigned) [Example 595]	7.89
CCOc1nc(C(=O)Nc2cc(F)cn(C)c2=O)cn2cc([C@@H]3CCCOC3)nc12 (single isomer, unassigned) [Example 596]	8.20
CCOc1nc(C(=O)Nc2cc(F)cn(C)c2=O)cn2cc([C@H]3CCCOC3)nc12 (single isomer, unassigned) [Example 597]	7.85
CCOc1nc(C(=O)Nc2cccnc2OC)cn2cc([C@H]3CCOC3)nc12 (single isomer, unassigned) [Example 598]	8.39
CCOc1nc(C(=O)Nc2cccnc2OC)cn2cc([C@@H]3CCOC3)nc12 (single isomer, unassigned) [Example 599]	8.25
CCOc1nc(C(=O)Nc2cccc(C(F)F)n2)cn2cc([C@]34CC[C@](C)(C3)OC4)nc12 (single isomer, unassigned) [Example 600]	8.92
CCOc1nc(C(=O)Nc2cccc(C(F)F)n2)cn2cc([C@@]34CC[C@@](C)(C3)OC4)nc12 (single isomer, unassigned) [Example 601]	8.72
CCOc1nc(C(=O)Nc2cccnc2OC)cn2cc([C@]34CC[C@](C)(C3)OC4)nc12 (single isomer, unassigned) [Example 604]	9.52
CCOc1nc(C(=O)Nc2cccnc2OC)cn2cc([C@@]34CC[C@@](C)(C3)OC4)nc12 (single isomer, unassigned) [Example 605]	9.40

The remaining lines, values ahead:

pIC50	SMILES
9.70	COc1ncccc1NC(=O)c1cn2cc([C@@]34CC[C@@](C)(C3)OC4)nc2nc1OC(C)C (single isomer, unassigned) [Example 578]
9.40	COc1ncccc1NC(=O)c1cn2cc([C@]34CC[C@](C)(C3)OC4)nc2nc1OC(C)C (single isomer, unassigned) [Example 579]
8.77	CC(C)Oc1cc2nc([C@@]34CC[C@@H](C3)OC4)cn2cc1C(=O)Nc1ccn(C)n1 (single isomer, unassigned) [Example 580]
8.43	CC(C)Oc1cc2nc([C@]34CC[C@H](C3)OC4)cn2cc1C(=O)Nc1ccn(C)n1 (single isomer, unassigned) [Example 581]
9.22	CC(C)Oc1cc2nc([C@@]34CC[C@@H](C3)OC4)cn2cc1C(=O)Nc1cnn2cccnc12 (single isomer, unassigned) [Example 582]
9.10	CC(C)Oc1cc2nc([C@]34CC[C@H](C3)OC4)cn2cc1C(=O)Nc1cnn2cccnc12 (single isomer, unassigned) [Example 583]
10.00	CC(C)Oc1cc2nc([C@@]34CC[C@@H](C3)OC4)cn2cc1C(=O)Nc1cccc(C(F)F)n1 (single isomer, unassigned) [Example 590]
10.00	CC(C)Oc1cc2nc([C@]34CC[C@H](C3)OC4)cn2cc1C(=O)Nc1cccc(C(F)F)n1 (single isomer, unassigned) [Example 591]
8.29	CC(C)Oc1cc2nc([C@]34CC[C@](C)(C3)OC4)cn2cc1C(=O)Nc1cc(F)n(C)n1 (single isomer, unassigned) [Example 602]
8.28	CC(C)Oc1cc2nc([C@@]34CC[C@@](C)(C3)OC4)cn2cc1C(=O)Nc1cc(F)n(C)n1 (single isomer, unassigned) [Example 603]
8.64	CC(C)Oc1cc2nc([C@@]34CC[C@@](C)(C3)OC4)cn2cc1C(=O)Nc1ccn(C)n1 (single isomer, unassigned) [Example 606]
8.51	CC(C)Oc1cc2nc([C@]34CC[C@](C)(C3)OC4)cn2cc1C(=O)Nc1ccn(C)n1 (single isomer, unassigned) [Example 607]
10.00	CC(C)Oc1cc2nc([C@]34CC[C@](C)(C3)OC4)cn2cc1C(=O)Nc1cccc(C(F)F)n1 (single isomer, unassigned) [Example 608]
10.00	CC(C)Oc1cc2nc([C@@]34CC[C@@](C)(C3)OC4)cn2cc1C(=O)Nc1cccc(C(F)F)n1 (single isomer, unassigned) [Example 609]
9.10	Cn1ccc(NC(=O)c2cn3cc([C@@]45CC[C@@](C)(C4)OC5)nc3cc2OC2CCC2)n1 (single isomer, unassigned) [Example 610]
8.89	Cn1ccc(NC(=O)c2cn3cc([C@]45CC[C@](C)(C4)OC5)nc3cc2OC2CCC2)n1 (single isomer, unassigned) [Example 611]
9.40	CC(C)Oc1nc2nc([C@@]34CC[C@@](C)(C3)OC4)cn2cc1C(=O)Nc1cnn2cccnc12 (single isomer, unassigned) [Example 612]
9.30	CC(C)Oc1nc2nc([C@]34CC[C@](C)(C3)OC4)cn2cc1C(=O)Nc1cnn2cccnc12 (single isomer, unassigned) [Example 613]
9.70	CC(C)Oc1cc2nc([C@]34CC[C@](C)(C3)OC4)cn2cc1C(=O)Nc1cnn2cccnc12 (single isomer, unassigned) [Example 614]
9.70	CC(C)Oc1cc2nc([C@@]34CC[C@@](C)(C3)OC4)cn2cc1C(=O)Nc1cnn2cccnc12 (single isomer, unassigned) [Example 615]
9.70	Cc1cnc2c(NC(=O)c3cn4cc([C@@]56CC[C@@](C)(C5)OC6)nc4nc3OC(C)C)cnn2c1 (single isomer, unassigned) [Example 616]
9.22	Cc1cnc2c(NC(=O)c3cn4cc([C@]56CC[C@](C)(C5)OC6)nc4nc3OC(C)C)cnn2c1 (single isomer, unassigned) [Example 617]
9.22	C[C@@H](Oc1cc2nc(C34COC(C)(C3)C4)cn2cc1C(=O)Nc1cccc(C(F)F)n1)C(F)(F)F (single isomer, unassigned) [Example 618]
10.00	CC(Oc1cc2nc(C34COC(C)(C3)C4)cn2cc1C(=O)Nc1cccc(C(F)F)n1)C(F)(F)F (single isomer, unassigned) [Example 619]
9.22	CC(C)Oc1cc2nc([C@@]34CC[C@@](C)(C3)OC4)cn2cc1C(=O)Nc1cccn(C)c1=O (single isomer, unassigned) [Example 620]
8.85	CC(C)Oc1cc2nc([C@]34CC[C@](C)(C3)OC4)cn2cc1C(=O)Nc1cccn(C)c1=O (single isomer, unassigned) [Example 621]
